Reference: patent US8637670B2, “Imidazo [4,5-C]quinoline derivatives and their use in the treatment of tumors and/or inflammation” (Piramal Enterprises Limited, priority 2009, dated 2014)

Experiments:
[1] = system: HCT116; assay: Cytotoxicity, propidium iodide assay, HCT116; assay type: cell-based; settings: Homo sapiens, HCT-116; Colon, HCT116, 48 hours treatment; read-out: IC50, C4a (HCT116)
Procedure, shortened: (§1)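 IC50 values come from percentage viability curves, with untreated wells set as 100%. Propidium iodide (7 μg/ml) fluorescence was measured after a 48-hour compound exposure and a freeze at −70° C. of at least 24 hours.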

[2] = system: A549; assay: Cytotoxicity, propidium iodide assay, A549; assay type: cell-based; settings: Homo sapiens; Lung, A549, 48 hours treatment; read-out: IC50, C1a (A549)
Procedure, shortened: as §1

[3] = biological target: T1, PI3Kα kinase (Homo sapiens, UniProt P42336); assay: PI3Kα assay (32P incorporation into phosphatidylinositol, TLC densitometry); assay type: biochemical; settings: for inhibition at 0.1 µM: At 100 nM; for inhibition at 1 µM: At 1000 nM
T1 construct: purchased Millipore, USA
T1 sequence (P42336 whole entry): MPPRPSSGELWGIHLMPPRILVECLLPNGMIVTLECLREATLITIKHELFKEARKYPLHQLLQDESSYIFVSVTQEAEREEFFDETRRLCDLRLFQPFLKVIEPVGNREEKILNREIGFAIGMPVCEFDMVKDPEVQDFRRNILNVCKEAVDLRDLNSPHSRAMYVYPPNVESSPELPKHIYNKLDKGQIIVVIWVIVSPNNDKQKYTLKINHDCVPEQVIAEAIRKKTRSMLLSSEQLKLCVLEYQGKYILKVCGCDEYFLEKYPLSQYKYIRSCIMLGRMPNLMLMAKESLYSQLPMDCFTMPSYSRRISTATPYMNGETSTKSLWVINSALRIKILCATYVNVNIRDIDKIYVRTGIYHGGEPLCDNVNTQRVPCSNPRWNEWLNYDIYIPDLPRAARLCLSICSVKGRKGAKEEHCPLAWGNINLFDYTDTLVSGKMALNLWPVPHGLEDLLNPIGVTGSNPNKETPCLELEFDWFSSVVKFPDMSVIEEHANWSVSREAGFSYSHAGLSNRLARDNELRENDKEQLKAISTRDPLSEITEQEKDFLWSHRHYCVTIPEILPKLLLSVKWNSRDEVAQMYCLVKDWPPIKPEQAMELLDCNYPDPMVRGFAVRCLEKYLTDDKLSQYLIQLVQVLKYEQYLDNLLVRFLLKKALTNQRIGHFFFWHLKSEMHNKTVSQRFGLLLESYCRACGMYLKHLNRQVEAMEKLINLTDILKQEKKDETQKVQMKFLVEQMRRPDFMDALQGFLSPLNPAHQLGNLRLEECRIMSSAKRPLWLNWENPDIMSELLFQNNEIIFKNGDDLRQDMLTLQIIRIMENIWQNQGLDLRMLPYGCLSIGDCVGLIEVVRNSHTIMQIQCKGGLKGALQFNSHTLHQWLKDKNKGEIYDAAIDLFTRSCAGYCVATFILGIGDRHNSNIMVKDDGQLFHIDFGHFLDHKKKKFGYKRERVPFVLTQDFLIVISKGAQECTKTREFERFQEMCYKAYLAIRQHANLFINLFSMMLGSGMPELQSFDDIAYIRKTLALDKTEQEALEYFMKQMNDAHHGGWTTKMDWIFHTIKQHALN
T1 sequence (P27986 whole entry partner): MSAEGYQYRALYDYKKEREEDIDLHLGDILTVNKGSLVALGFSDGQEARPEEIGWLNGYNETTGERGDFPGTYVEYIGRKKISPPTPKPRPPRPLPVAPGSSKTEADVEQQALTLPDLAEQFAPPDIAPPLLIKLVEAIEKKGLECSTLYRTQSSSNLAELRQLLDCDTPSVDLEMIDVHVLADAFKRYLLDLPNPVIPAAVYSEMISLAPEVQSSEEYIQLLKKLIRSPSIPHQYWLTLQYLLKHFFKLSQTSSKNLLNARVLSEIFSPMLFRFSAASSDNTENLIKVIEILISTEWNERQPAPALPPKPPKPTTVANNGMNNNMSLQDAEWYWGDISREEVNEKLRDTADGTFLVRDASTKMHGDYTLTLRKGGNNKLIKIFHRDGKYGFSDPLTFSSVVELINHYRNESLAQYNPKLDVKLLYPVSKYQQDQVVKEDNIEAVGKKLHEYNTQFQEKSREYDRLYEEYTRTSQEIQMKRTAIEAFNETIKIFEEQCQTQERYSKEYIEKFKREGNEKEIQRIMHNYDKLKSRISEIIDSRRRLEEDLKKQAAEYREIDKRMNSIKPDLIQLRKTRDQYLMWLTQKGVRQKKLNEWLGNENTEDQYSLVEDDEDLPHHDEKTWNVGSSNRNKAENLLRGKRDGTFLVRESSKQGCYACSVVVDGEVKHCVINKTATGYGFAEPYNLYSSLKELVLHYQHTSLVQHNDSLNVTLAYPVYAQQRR
Procedure, shortened: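 Human PI3Kα (20 ng) with 12.5 μg phosphatidylinositol, 10 μM ATP plus [γ-32P]ATP in 10 mM Hepes pH 7.5, 50 mM MgCl2; 20 min at 30° C. Lipids extracted in MeOH/chloroform, resolved by silica TLC, and 32P-labelled PI quantified by autoradiography densitometry.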

[4] = system: AsPC 1; assay: Cytotoxicity, propidium iodide assay, AsPC 1; assay type: cell-based; settings: Homo sapiens, ASPC1; Pancreatic, AsPC 1, 48 hours treatment; read-out: IC50, C5b (AsPC 1)
Protocol: The assay was designed as in the reference, Anticancer Drugs, 2002, 13, 1-8, the disclosure of which is incorporated by reference for the teaching of the assay.
Cells from cell lines as mentioned in the table given below were seeded at a density of 3000 cells/well in a white opaque 96-well plate. Following incubation at 37° C./5% CO2 for a period of 18-24 hours, the cells were treated with various concentrations (stock solution was prepared in DMSO and subsequent dilutions were made in media as per ATCC guidelines) of the compounds of Example 1-40 was for a period of 48 hours. At the end of treatment, the spent culture medium was discarded, the cells were washed with 1×PBS and 200 μl of 7 μg/ml propidium iodide was added to each well. The plates were frozen at −70° C. for at least 24 hours. For analysis, the plates were brought to RT, allowed to thaw and were read in PoleStar fluorimeter with the fluorescence setting. The percentage of viable cells in the non-treated set of wells was considered to be 100 and the percentage viability following treatment was calculated accordingly. IC50 values were calculated from graphs plotted using these percentages. Table 4 depicts the IC50 values of compounds of Example 1-40 in individual cell lines.
The abbreviations for the Cell Lines as used in Table 4 are: […]

[5] = system: PC3; assay: Cytotoxicity, propidium iodide assay, PC3; assay type: cell-based; settings: Homo sapiens, PC-3; Prostate, PC3, 48 hours treatment; read-out: IC50, C2a (PC3)
Procedure, shortened: as §1

[6] = system: IL-6; assay: Human monocyte assay, LPS-stimulated IL-6 (ELISA); assay type: cell-based; settings: human monocytes, 1 μg/ml LPS, 5 hours
Procedure, shortened: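 Adherent human PBMC-derived monocytes (2×10^4/well, cultured 48 h) were pretreated with compound or 0.5% DMSO vehicle for 30 min, then stimulated with 1 μg/ml E. coli 0111:B4 LPS for 5 h at 37 °C. Supernatant IL-6 and TNF-α were measured by ELISA; IC50 by nonlinear regression, with MTS toxicity on a parallel plate.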

[7] = system: TNF-α; assay: Human monocyte assay, LPS-stimulated TNF-α (ELISA); assay type: cell-based; settings: human monocytes, 1 μg/ml LPS, 5 hours, read-out: TNFα (IC50)
Protocol: The assay was designed as in the reference, Physiol. Res., 2003, 52, 593-598, the disclosure of which is incorporated by reference for the teaching of the assay.
Peripheral blood mononuclear cells (hPBMC) were harvested from human blood and suspended in RPMI 1640 culture medium containing 10% FCS, 100 U/mL penicillin and […] streptomycin (assay medium). Monocytes in the hPBMCs were counted using a Coulter Counter following which the cells were resuspended at 2×10^5 monocytes/mL. A cell suspension containing 2×10^4 monocytes was aliquoted per well of a 96-well plate. Subsequently, the hPBMCs were incubated for 4-5 hours at 37° C. under 5% CO2 (During the incubation, the monocytes adhered to the bottom of 96-well plastic culture plate). Following the incubation, the non-adherent lymphocytes were washed with assay medium and the adherent monocytes re-fed with assay medium. After a 48-hour incubation period (37° C., 5% CO2), monocytes were pretreated with various concentrations of compounds of Example 1-40 (prepared in DMSO) or vehicle (0.5% DMSO) for 30 minutes and stimulated with 1 μg/ml LPS (Escherchia coli 0111:B4, Sigma Chemical Co., St. Louis, Mo.). The incubation was continued for 5 hours at 37° C., 5% CO2. Supernatants were harvested, assayed for IL-6 and TNF-α by ELISA as described by the manufacturer (BD Biosciences, USA). Dexamethasone (10 μM) was used as standard for this assay. The 50% inhibitory concentration (IC50) values were calculated by a nonlinear regression method. In all experiments, a parallel plate was run to ascertain the toxicity of compounds of Example 1-40. The toxicity was determined using the MTS assay as described in Am. J. Physiol. Cell Physiol., 2003, 285, C813-C822.

| inhibition at 0.1 µM [3] [%] | IC50 [6] [nM] | IC50 [7] [nM] | inhibition at 1 µM [3] [%] | Structure (SMILES) | IC50 [1] [nM] | IC50 [2] [nM] | IC50 [4] [nM] | IC50 [5] [nM] |
| --- | --- | --- | --- | --- | --- | --- | --- | --- |
| 10 to 50 | 1000 to 10000 |  |  | Cc1cccc(S(=O)(=O)n2c(=O)n(-c3ccc(C(C)(C)C#N)cc3)c3c4cc(Br)ccc4ncc32)c1 [Example 3, 2-(4-(8-Bromo-2-oxo-3-(m-tolylsulfonyl)-2,3-dihydro-1H-imidazo[4,5-c]quinolin-1-yl)phenyl)-2-methylpropanenitrile] | 1000 to 3000 | 1000 to 3000 | 1000 to 3000 | ≤ 1000 |
| > 50 | ≤ 1000 | ≤ 1000 |  | CC(C)(C#N)c1ccc(-n2c(=O)n(C(=O)c3ccccc3)c3cnc4ccc(Br)cc4c32)cc1 [Example 30, 2-(4-(3-Benzoyl-8-bromo-2-oxo-2,3-dihydro-1H-imidazo[4,5-c]quinolin-1-yl)phenyl)-2-methylpropanenitrile] | ≤ 1000 | 1000 to 3000 | 1000 to 3000 | 1000 to 3000 |
|  | ≤ 1000 | ≤ 1000 | 10 to 50 | C/C=C/C(=O)n1c(=O)n(-c2ccc(C(C)(C)C#N)cc2)c2c3cc(Br)ccc3ncc21 [Example 27, (E)-2-(4-(8-Bromo-3-but-2-enoyl-2-oxo-2,3-dihydro-1H-imidazo[4,5-c]quinolin-1-yl)phenyl)-2-methylpropanenitrile] | 1000 to 3000 | ≤ 1000 | ≤ 1000 | ≤ 1000 |
|  | ≤ 1000 | ≤ 1000 | 10 to 50 | C/C=C/C(=O)n1c(=O)n(-c2ccc(C(C)(C)C#N)cc2)c2c3cc(Cl)ccc3ncc21 [Example 38, (E)-2-(4-(3-But-2-enoyl-8-chloro-2-oxo-2,3-dihydro-1H-imidazo[4,5-c]quinolin-1-yl)phenyl)-2-methylpropanenitrile] | > 3000 | ≤ 1000 | ≤ 1000 | ≤ 1000 |
| 10 to 50 | ≤ 1000 | ≤ 1000 |  | CC(C)(C#N)c1ccc(-n2c(=O)n(C(=O)c3ccccc3)c3cnc4ccc(Cl)cc4c32)cc1 [Example 37, 2-(4-(3-Benzoyl-8-chloro-2-oxo-2,3-dihydro-1H-imidazo[4,5-c]quinolin-1-yl)phenyl)-2-methylpropanenitrile] | > 3000 | 1000 to 3000 |  | 1000 to 3000 |
